As a reminder, the pIC50 is the negative decadic logarithm of the IC50, by convention in mol/L.

pIC50: −log10 of the molar value. Some results are limits rather than exact numbers.

The target of assay [1] is T1, Human Calpain 9/NS1 (Homo sapiens, UniProt O14815).
T1 sequence (O14815 1-690): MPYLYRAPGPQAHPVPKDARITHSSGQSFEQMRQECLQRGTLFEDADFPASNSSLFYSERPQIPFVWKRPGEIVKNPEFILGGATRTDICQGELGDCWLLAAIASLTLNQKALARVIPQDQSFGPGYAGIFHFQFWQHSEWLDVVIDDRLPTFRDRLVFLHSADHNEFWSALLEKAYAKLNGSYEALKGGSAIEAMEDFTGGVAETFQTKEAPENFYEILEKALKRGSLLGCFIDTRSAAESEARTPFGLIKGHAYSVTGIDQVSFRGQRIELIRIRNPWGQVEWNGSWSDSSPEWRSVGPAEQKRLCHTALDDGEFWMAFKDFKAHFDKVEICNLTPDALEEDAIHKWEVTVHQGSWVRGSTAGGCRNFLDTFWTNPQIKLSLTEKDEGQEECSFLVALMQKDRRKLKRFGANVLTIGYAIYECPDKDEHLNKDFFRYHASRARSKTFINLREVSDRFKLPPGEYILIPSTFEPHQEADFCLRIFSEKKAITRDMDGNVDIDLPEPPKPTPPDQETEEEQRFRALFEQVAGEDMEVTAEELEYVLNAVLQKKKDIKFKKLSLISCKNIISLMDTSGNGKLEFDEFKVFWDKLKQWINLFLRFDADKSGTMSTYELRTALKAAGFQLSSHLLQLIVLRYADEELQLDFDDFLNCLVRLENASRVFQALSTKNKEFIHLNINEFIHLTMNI
T1 sequence (P04632 1-268 partner): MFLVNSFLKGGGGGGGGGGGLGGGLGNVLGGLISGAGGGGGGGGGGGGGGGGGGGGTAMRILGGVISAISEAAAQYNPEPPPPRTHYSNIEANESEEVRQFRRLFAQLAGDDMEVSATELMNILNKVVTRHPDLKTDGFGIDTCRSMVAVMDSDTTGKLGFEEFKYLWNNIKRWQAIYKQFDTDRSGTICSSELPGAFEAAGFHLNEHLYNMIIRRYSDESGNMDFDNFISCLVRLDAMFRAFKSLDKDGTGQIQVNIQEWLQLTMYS
In words: Calpain inhibition, continuous fluorescence (FRET substrate) assay, calpain 9. Format: biochemical. Particulars: SensoLyte 520 FRET substrate, 25C. The method in brief:
(§1)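 Calpains preincubated with serially diluted inhibitors at 25 °C in 50 mM Tris pH 7.5, 100 mM NaCl, 1 mM DTT; CaCl2 plus 5-FAM/QXL 520 FRET substrate started the reaction. Fluorescence (490/520 nm) read 10 min; rates from 1-5 min slopes, IC50 from 4-parameter logistic fit.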

Assay [2] concerns the target T2, Human Calpain 2/NS1 (Homo sapiens, UniProt P17655).
T2 sequence (P17655 1-700): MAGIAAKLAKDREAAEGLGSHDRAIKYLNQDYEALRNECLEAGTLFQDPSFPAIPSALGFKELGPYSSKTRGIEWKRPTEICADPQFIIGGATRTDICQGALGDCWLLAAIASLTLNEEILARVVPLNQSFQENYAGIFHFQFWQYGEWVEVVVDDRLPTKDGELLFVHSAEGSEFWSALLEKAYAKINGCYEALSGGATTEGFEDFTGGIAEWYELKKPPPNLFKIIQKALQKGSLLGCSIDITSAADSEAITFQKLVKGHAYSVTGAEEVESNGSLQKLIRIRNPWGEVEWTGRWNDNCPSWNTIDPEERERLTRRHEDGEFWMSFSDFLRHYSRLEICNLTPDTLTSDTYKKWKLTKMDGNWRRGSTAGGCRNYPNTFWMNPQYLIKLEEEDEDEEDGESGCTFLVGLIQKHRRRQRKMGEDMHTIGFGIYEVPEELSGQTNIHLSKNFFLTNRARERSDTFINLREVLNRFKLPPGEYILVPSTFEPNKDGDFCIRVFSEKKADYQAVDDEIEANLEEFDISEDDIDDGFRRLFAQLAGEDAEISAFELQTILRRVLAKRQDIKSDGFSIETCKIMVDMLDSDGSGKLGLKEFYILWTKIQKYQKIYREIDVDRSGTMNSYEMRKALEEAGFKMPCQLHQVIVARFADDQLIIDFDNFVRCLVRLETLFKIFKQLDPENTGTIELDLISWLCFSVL
T2 sequence (P04632 1-268 partner): T1 sequence (P04632 1-268 partner)
Briefly: Calpain inhibition, continuous fluorescence (FRET substrate) assay, calpain 2. The assay is classed as biochemical. Particulars: SensoLyte 520 FRET substrate, 25C. The procedure, abridged: as §1

Assay [3] deals with Calpain activity in SH-SY5Y cells. Briefly: SH-SY5Y spectrin breakdown product (SBDP-150) western blot assay. Format: cell-based. To be noted: Homo sapiens; SH-SY5Y cells, 25 uM A23187, SBDP-150 western blot; read-out: SH-SY5Y Spectrin IC50. In general terms: Immunoblotting shows a protein as a band on a membrane.
Assay [4] has the same test system. Briefly: SH-SY5Y Suc-LLVY-AMC fluorescence assay. Format: cell-based. To be noted: Homo sapiens; SH-SY5Y cells, 100 uM Suc-LLVY-AMC; read-out: SH-SY5Y + AMC IC50.
Assay [5] concerns the target T3, Human Calpain 1/NS1 (Homo sapiens, UniProt P07384).
T3 sequence (P07384 1-714): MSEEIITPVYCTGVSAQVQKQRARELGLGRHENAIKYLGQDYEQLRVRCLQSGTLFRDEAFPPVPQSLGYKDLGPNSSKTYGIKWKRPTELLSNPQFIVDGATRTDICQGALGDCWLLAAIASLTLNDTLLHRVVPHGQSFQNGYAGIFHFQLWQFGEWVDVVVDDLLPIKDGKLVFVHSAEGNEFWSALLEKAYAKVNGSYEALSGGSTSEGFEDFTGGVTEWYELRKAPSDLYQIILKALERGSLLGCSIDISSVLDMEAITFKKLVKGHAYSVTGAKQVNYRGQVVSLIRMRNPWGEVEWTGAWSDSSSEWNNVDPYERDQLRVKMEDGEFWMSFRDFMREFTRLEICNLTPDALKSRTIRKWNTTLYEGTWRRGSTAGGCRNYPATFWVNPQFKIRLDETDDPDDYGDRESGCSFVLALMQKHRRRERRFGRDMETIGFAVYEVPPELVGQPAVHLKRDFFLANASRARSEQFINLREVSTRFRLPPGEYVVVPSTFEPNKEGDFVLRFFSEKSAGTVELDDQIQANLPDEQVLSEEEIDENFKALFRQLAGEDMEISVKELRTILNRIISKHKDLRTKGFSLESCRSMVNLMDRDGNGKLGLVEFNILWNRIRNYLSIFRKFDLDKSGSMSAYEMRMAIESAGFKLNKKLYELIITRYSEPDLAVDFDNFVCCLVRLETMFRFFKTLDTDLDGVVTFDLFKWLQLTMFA
T3 sequence (P04632 1-268 partner): T1 sequence (P04632 1-268 partner)
Briefly: Calpain inhibition, continuous fluorescence (FRET substrate) assay, calpain 1. The assay is classed as biochemical. Particulars: SensoLyte 520 FRET substrate, 25C. The procedure, abridged:
as §1

For the molecule `Cc1cc(C(=O)NC(Cc2ccccc2)C(=O)C(N)=O)n(-c2ncc3ccccc3n2)n1` (centres unmarked) [Compound 11, N-(4-AMINO-3,4-DIOXO-1-PHENYLBUTAN-2-YL)-3-METHYL-1-(QUINAZOLIN-2-YL)-1H-PYRAZOLE-5-CARBOXAMIDE], the negative-log IC50 (pIC50) is more than 5.52 in assay [1]; more than 5.52 in assay [2]; 4.60 to 5.00 in assay [3]; more than 5.00 in assay [4]; more than 5.52 in assay [5].

Consider `Cn1cc(C(=O)NC(Cc2ccccc2)C(=O)C(N)=O)c(-c2cccc3cn(C)nc23)n1` (centres unmarked) [Compound 99, N-(4-AMINO-3,4-DIOXO-1-PHENYLBUTAN-2-YL)-1-METHYL-3-(2-METHYL-2H-INDAZOL-7-YL)-1H-PYRAZOLE-4-CARBOXAMIDE], for which the pIC50 in assay [1] is more than 5.52; in assay [2] it was more than 5.52; in assay [3], less than 4.60; in assay [4], less than 4.60; in assay [5], more than 5.52.

Regarding `Cn1cc(C(=O)NC(Cc2ccccc2)C(=O)C(N)=O)c(-c2cccc3scnc23)n1` (centres unmarked) [Compound 51, N-(4-AMINO-3,4-DIOXO-1-PHENYLBUTAN-2-YL)-3-(BENZO[D]THIAZOL-4-YL)-1-METHYL-1H-PYRAZOLE-4-CARBOXAMIDE], the pIC50 in assay [1] is more than 5.52; in assay [2], more than 5.52; in assay [3], 4.60 to 5.00; in assay [4], less than 4.60; in assay [5], more than 5.52.

As for `Cc1nc(-c2ccccc2F)c(C(=O)NC(Cc2ccc(Cl)cc2)C(=O)C(N)=O)o1` (centres unmarked) [Compound 96, N-(4-AMINO-1-(4-CHLOROPHENYL)-3,4-DIOXOBUTAN-2-YL)-4-(2-FLUOROPHENYL)-2-METHYLOXAZOLE-5-CARBOXAMIDE], the pIC50 in assay [1] was more than 5.52; in assay [2], more than 5.52; in assay [3] it was more than 5.00; in assay [4], more than 5.00; in assay [5] it was more than 5.52.

As for `NC(=O)C(=O)C(Cc1ccccc1)NC(=O)c1nsnc1-c1ccc(F)cc1` (centres unmarked) [Compound 3, N-(4-AMINO-3,4-DIOXO-1-PHENYLBUTAN-2-YL)-4-(4-FLUOROPHENYL)-1,2,5-THIADIAZOLE-3-CARBOXAMIDE], the negative-log IC50 (pIC50) in assay [1] was more than 5.52; in assay [2], more than 5.52; in assay [3], 4.60 to 5.00; in assay [4] it was more than 5.00; in assay [5] it was more than 5.52.

`Cn1cc(C(=O)NC(Cc2ccccc2)C(=O)C(N)=O)c(-c2cccc3cccnc23)n1` (centres unmarked) [Compound 14]: the negative-log IC50 (pIC50) in assay [1] is more than 5.52; in assay [2], more than 5.52; in assay [3] it was less than 4.60; in assay [4], less than 4.60; in assay [5], more than 5.52.

On to `Cn1cc(C(=O)NC(Cc2ccc(C(F)(F)F)cc2)C(=O)C(N)=O)c(-c2ccccc2F)n1` (centres unmarked) [Compound 95, N-(4-AMINO-3,4-DIOXO-1-(4-(TRIFLUOROMETHYL)PHENYL)BUTAN-2-YL)-3-(2-FLUOROPHENYL)-1-METHYL-1H-PYRAZOLE-4-CARBOXAMIDE], for which the pIC50 is more than 5.52 in assay [1]; more than 5.52 in assay [2]; 4.60 to 5.00 in assay [3]; less than 4.60 in assay [4]; more than 5.52 in assay [5].

For `Cn1cc(C(=O)NC(Cc2ccccc2)C(=O)C(N)=O)c(-c2cccc3ncsc23)n1` (centres unmarked) [Compound 6, N-(4-AMINO-3,4-DIOXO-1-PHENYLBUTAN-2-YL)-3-(BENZO[D]THIAZOL-7-YL)-1-METHYL-1H-PYRAZOLE-4-CARBOXAMIDE], the pIC50 was more than 5.52 in assay [1]; more than 5.52 in assay [2]; more than 5.00 in assay [3]; more than 5.00 in assay [4]; more than 5.52 in assay [5].

As for `Cn1ncc2c(-c3nn(C(F)F)cc3C(=O)NC(Cc3ccccc3)C(=O)C(N)=O)cccc21` (centres unmarked) [Compound 62, N-(4-AMINO-3,4-DIOXO-1-PHENYLBUTAN-2-YL)-1-(DIFLUOROMETHYL)-3-(1-METHYL-1H-INDAZOL-4-YL)-1H-PYRAZOLE-4-CARBOXAMIDE], the pIC50 in assay [1] was more than 5.52; in assay [2], more than 5.52; in assay [3] it was more than 5.00; in assay [4], more than 5.00; in assay [5], more than 5.52.

Regarding `NC(=O)C(=O)C(Cc1ccccc1)NC(=O)c1cnoc1-c1cccc2c1OC(F)(F)O2` (centres unmarked) [Compound 8, N-(4-AMINO-3,4-DIOXO-1-PHENYLBUTAN-2-YL)-5-(2,2-DIFLUOROBENZO[d][1,3]DIOXOL-4-YL)ISOXAZOLE-4-CARBOXAMIDE], the pIC50 in assay [1] was more than 5.52; in assay [2] it was more than 5.52; in assay [3], 4.60 to 5.00; in assay [4], less than 4.60; in assay [5], more than 5.52.

As to `Cn1cc(C(=O)NC(Cc2ccccc2)C(=O)C(N)=O)c(-c2ncnc3ccccc23)n1` (centres unmarked) [Compound 49, N-(4-AMINO-3,4-DIOXO-1-PHENYLBUTAN-2-YL)-1-METHYL-3-(QUINAZOLIN-4-YL)-1H-PYRAZOLE-4-CARBOXAMIDE], the negative-log IC50 (pIC50) is more than 5.52 in assay [1]; more than 5.52 in assay [2]; less than 4.60 in assay [3]; 4.60 to 5.00 in assay [4]; more than 5.52 in assay [5].

As for `Cn1cc(C(=O)NC(Cc2ccccc2)C(=O)C(N)=O)c(-c2cccc3ocnc23)n1` (centres unmarked) [Compound 68, N-(4-AMINO-3,4-DIOXO-1-PHENYLBUTAN-2-YL)-3-(BENZO[D]OXAZOL-4-YL)-1-METHYL-1H-PYRAZOLE-4-CARBOXAMIDE], the pIC50 is more than 5.52 in assay [1]; more than 5.52 in assay [2]; 4.60 to 5.00 in assay [3]; more than 5.00 in assay [4]; more than 5.52 in assay [5].

Take `Cn1cc(C(=O)NC(Cc2ccccc2)C(=O)C(N)=O)c(-c2cccc3[nH]ncc23)n1` (centres unmarked) [Compound 16, N-(4-AMINO-3,4-DIOXO-1-PHENYLBUTAN-2-YL)-3-(1H-INDAZOL-4-YL)-1-METHYL-1H-PYRAZOLE-4-CARBOXAMIDE]: the pIC50 was more than 5.52 in assay [1]; more than 5.52 in assay [2]; 4.60 to 5.00 in assay [3]; 4.60 to 5.00 in assay [4]; more than 5.52 in assay [5].

The values are drawn from patent publication US20210009564A1, “CALPAIN MODULATORS AND THERAPEUTIC USES THEREOF” (BLADE THERAPERTICS, INC., priority 2018, published 2021).
